The record followed here is ChEMBL document CHEMBL4219051, “Cyclin-Dependent Kinase 8: A New Hope in Targeted Cancer Therapy?” (J Med Chem, 2018).

Assay [1] concerns the target Mitogen-activated protein kinase kinase kinase 19 (Homo sapiens) (UniProt Q56UN5). In words: Inhibition of YSK4 (unknown origin) at 2 uM relative to control.
For assay [2], the target named is Mitogen-activated protein kinase kinase kinase kinase 2 (Homo sapiens) (UniProt Q12851). In words: Inhibition of MAP4K2 (unknown origin) at 2 uM relative to control.
Chain of Mitogen-activated protein kinase kinase kinase kinase 2 (Homo sapiens) (Q12851 whole entry): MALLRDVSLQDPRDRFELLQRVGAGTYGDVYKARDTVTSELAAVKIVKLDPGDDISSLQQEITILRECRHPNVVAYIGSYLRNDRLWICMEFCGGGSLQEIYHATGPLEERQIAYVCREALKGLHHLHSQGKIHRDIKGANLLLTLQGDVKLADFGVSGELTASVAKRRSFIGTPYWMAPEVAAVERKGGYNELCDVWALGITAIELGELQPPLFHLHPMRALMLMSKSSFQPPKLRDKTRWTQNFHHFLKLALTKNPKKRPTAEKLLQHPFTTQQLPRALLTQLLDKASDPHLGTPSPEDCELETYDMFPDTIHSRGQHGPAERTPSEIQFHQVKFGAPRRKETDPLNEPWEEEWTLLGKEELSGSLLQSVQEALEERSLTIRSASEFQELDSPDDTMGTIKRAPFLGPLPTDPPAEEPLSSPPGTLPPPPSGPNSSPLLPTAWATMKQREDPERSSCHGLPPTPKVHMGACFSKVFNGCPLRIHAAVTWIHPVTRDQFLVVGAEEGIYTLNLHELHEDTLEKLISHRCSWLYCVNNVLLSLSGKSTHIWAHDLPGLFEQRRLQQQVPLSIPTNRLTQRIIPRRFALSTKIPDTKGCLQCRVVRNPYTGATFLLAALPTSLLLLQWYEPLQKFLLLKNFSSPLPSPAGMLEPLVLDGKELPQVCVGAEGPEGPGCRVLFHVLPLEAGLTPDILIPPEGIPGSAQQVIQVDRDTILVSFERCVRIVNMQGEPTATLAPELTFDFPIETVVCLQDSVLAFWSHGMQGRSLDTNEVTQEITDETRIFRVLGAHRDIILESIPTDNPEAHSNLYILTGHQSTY
Assay [3] has as its target Receptor-type tyrosine-protein kinase FLT3 (Homo sapiens) (UniProt P36888). In words: Inhibition of FLT3 (unknown origin) at 1 uM relative to control.
Assay [4] deals with HCT-116. In words: cells. The conditions noted are these: Homo sapiens.
Assay [5] concerns HL-60. In words: Growth inhibition of human HL60 cells by alamar blue assay. It is filed as functional. (Resazurin is reduced to fluorescent resorufin, in cell work by metabolically active cells.)
Assay [6] deals with OCI-AML-3. Nature of the assay: Growth inhibition of human OCI-AML3 cells by alamar blue assay. The format is functional.
In assay [7] the test system is KG-1. Nature of the assay: Growth inhibition of human KG1 cells by alamar blue assay. The format is functional.
Assay [8] can be described thus: Growth inhibition of human MOLM6 cells by alamar blue assay. The format is functional.
Assay [9] concerns OCI-AML2. Nature of the assay: Growth inhibition of human OCI-AML2 cells by alamar blue assay. The format is functional.
In assay [10] the target is T1, CDK8/Cyclin C (Homo sapiens, UniProt P49336). Nature of the assay: Inhibition of CDK8/Cyclin-C (unknown origin) in presence of [gamma33P]ATP by radiometric method. The format is protein-complex assay.
T1 sequence (P49336 whole entry): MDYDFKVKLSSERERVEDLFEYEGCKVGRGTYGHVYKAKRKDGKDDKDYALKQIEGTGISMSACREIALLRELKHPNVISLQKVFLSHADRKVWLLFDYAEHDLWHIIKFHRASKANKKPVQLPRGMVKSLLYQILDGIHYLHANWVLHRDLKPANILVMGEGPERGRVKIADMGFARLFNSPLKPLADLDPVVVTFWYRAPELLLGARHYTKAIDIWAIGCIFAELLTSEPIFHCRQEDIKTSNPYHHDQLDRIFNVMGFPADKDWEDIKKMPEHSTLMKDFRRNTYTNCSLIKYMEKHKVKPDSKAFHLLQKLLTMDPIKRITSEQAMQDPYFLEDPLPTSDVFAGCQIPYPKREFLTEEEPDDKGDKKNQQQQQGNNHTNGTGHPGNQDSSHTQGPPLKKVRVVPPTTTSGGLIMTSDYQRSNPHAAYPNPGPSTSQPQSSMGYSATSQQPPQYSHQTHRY
T1 sequence (P24863 whole entry, further chain): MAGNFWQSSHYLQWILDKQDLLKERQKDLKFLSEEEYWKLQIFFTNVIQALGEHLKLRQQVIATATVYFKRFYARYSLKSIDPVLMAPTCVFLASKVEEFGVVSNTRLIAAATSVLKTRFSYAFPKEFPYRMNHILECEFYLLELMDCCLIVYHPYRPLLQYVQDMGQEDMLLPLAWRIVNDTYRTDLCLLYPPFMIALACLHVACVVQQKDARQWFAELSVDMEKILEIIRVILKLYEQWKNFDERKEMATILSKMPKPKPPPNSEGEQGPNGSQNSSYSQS
Assay [11] can be described thus: Growth inhibition of human MOLM16 cells by alamar blue assay. The format is functional.
Assay [12] concerns MV4-11. In words: Growth inhibition of human MV4-11 cells by alamar blue assay. The format is functional.
Assay [13] can be described thus: Growth inhibition of human SKNO1 cells by alamar blue assay. The format is functional. The conditions noted are these: SKNO-1.
The target in assay [14] is Cyclin-C/Cyclin-dependent kinase 19 (Homo sapiens, UniProt Q9BWU1). Nature of the assay: Inhibition of CDK19/Cyclin-C (unknown origin) in presence of [gamma33P]ATP by radiometric method. The format is protein-complex assay.
Chain of Cyclin-C/Cyclin-dependent kinase 19 (Q9BWU1 whole entry): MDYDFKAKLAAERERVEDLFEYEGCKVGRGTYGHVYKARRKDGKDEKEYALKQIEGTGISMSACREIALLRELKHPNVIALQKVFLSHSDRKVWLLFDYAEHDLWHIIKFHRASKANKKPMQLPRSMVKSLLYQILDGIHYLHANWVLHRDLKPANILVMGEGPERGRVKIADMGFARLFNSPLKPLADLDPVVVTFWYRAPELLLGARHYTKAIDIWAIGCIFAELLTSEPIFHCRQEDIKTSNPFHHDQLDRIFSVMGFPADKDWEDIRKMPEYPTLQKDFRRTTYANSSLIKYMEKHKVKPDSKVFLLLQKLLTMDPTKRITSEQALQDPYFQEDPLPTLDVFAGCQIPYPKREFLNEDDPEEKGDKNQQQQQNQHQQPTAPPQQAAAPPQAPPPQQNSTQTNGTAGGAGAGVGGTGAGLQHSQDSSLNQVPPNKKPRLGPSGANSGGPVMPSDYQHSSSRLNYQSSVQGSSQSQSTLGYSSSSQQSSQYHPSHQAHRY
Chain of Cyclin-C/Cyclin-dependent kinase 19 (P24863 whole entry, further chain): as the sequence (P24863 whole entry, further chain) above
For assay [15], the target named is T1, CDK8/Cyclin C. Nature of the assay: Inhibition of CDK8/CCNC (unknown origin) using RBER-IRStide as substrate in presence of [gamma33P]ATP by radiometric method. The format is protein-complex assay.
For assay [16], the target named is Cyclin-dependent kinase 8/Cyclin-C (Mus musculus, UniProt Q8R3L8). In words: Inhibition of CDK8/Cyclin-C in R848-stimulated mouse BMDC assessed as upregulation of IL-10 level. It is filed as cell-based.
Chain of Cyclin-dependent kinase 8/Cyclin-C (Q8R3L8 whole entry): as the sequence (P49336 whole entry) above, with Q82L, D366E, N372T, S394G, T396A counted along it
Chain of Cyclin-dependent kinase 8/Cyclin-C (Q62447 whole entry, further chain): as the sequence (P24863 whole entry, further chain) above, with A112T, M171V counted along it
The target of assay [17] is T2, Cyclin-dependent kinase 19 (Homo sapiens, UniProt Q9BWU1). Nature of the assay: Inhibition of CDK19 (unknown origin).
T2 sequence (Q9BWU1 whole entry): as the sequence (Q9BWU1 whole entry) above
For assay [18], the target named is Cyclin-dependent kinase 8 (Homo sapiens, UniProt P49336). In words: Inhibition of CDK8 (unknown origin).
Chain of Cyclin-dependent kinase 8 (P49336 whole entry): as the sequence (P49336 whole entry) above
Assay [19] relates to MOLM-14. Nature of the assay: Growth inhibition of human MOLM14 cells after 10 days by CellTiter-Glo assay. The conditions noted are these: MOLM-14, 240 h. It is filed as functional. A general note: In ATP-based viability assays light output follows the ATP content of the culture.
Assay [20] relates to SET-2. In words: Growth inhibition of human SET2 cells after 10 days by CellTiter-Glo assay. The format is functional. The conditions noted are these: SET-2, 240 h.
The test system of assay [21] is RS4-11. In words: Growth inhibition of human RS4:11 cells after 10 days by CellTiter-Glo assay. It is filed as functional. The conditions noted are these: RS4-11, 240 h.
The target in assay [22] is Rho-associated protein kinase 1 (Homo sapiens, UniProt Q13464). Nature of the assay: Inhibition of ROCK1 (unknown origin).
In assay [23] the test system is MV4-11. In words: Growth inhibition of human MV4-11 cells after 10 days by CellTiter-Glo assay. The format is functional. The conditions noted are these: MV4-11, 240 h.
Assay [24] deals with Rho-associated protein kinase 2 (Homo sapiens, UniProt O75116). In words: Inhibition of ROCK2 (unknown origin).
Chain of Rho-associated protein kinase 2 (O75116 whole entry): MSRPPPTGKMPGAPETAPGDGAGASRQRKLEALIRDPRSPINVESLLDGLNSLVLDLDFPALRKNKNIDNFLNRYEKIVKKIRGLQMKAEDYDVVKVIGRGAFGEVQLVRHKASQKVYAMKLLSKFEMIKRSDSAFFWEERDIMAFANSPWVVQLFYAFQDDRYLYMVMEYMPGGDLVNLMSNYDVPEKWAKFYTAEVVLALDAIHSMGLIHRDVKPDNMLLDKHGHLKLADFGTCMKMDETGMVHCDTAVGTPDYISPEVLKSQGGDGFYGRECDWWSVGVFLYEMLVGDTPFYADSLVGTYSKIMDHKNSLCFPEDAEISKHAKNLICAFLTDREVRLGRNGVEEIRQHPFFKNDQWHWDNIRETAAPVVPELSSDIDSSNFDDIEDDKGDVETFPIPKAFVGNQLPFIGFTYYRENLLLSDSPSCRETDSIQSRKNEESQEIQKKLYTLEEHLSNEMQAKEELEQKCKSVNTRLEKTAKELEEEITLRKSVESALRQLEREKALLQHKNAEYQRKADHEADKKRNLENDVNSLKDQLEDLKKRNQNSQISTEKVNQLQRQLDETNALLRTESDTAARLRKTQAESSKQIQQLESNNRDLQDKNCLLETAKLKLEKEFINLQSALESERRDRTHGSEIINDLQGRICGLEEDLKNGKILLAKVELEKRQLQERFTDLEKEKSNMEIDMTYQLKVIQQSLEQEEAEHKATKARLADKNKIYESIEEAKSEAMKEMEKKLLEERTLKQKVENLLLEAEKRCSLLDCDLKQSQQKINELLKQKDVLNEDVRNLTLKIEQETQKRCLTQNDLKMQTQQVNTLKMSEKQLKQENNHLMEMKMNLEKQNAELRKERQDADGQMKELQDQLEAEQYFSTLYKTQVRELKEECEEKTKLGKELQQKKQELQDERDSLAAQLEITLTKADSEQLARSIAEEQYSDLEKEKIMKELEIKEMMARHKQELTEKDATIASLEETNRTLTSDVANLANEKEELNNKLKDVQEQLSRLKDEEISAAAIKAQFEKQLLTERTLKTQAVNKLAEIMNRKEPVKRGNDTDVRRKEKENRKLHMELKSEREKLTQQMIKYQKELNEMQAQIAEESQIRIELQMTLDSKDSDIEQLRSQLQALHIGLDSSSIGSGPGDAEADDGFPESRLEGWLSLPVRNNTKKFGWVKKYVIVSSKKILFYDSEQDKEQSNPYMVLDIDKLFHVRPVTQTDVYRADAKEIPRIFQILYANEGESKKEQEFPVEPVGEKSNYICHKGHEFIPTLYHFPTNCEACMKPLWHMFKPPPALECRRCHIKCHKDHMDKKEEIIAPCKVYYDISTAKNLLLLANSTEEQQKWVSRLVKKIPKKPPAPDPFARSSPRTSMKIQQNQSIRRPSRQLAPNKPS
Assay [25] in a line: Growth inhibition of human SKNO1 cells after 10 days by CellTiter-Glo assay. It is filed as functional. The conditions noted are these: SKNO-1, 240 h.
Assay [26] in a line: Growth inhibition of human UKE1 cells after 10 days by CellTiter-Glo assay. It is filed as functional. The conditions noted are these: UKE1, 240 h.
In assay [27] the test system is SET-2. Nature of the assay: Antitumor activity against human SET2 cells xenografted in SCID Beige mouse assessed as tumor growth inhibition at 0.16 mg/kg, ip qd measured on day 33 relative to control. The format is functional. The conditions noted are these: SET-2, ip, 792 h, read-out: TGI. For orientation: A xenograft is tissue or cells of one species grown in another, often human tumour cells in immunodeficient mice.

Assay [28] concerns MEG-01. Nature of the assay: Growth inhibition of human MEG01 cells after 10 days by CellTiter-Glo assay. The format is functional. The conditions noted are these: MEG-01, 240 h.
Assay [29] deals with T2, Cyclin-dependent kinase 19. In words: Inhibition of CDK19 (unknown origin) in presence of [gamma33P]ATP by radiometric method.
In assay [30] the test system is HCT-116. Nature of the assay: Growth inhibition of human HCT116 cells after 7 days by CellTiter-Glo assay. The conditions noted are these: HCT-116, 168 h. The format is functional.
Assay [31] concerns TF-1. Nature of the assay: Growth inhibition of human TF1 cells after 10 days by CellTiter-Glo assay. The format is functional. The conditions noted are these: TF-1, 240 h.

Chain of Receptor-type tyrosine-protein kinase FLT3 (Homo sapiens) (P36888 whole entry): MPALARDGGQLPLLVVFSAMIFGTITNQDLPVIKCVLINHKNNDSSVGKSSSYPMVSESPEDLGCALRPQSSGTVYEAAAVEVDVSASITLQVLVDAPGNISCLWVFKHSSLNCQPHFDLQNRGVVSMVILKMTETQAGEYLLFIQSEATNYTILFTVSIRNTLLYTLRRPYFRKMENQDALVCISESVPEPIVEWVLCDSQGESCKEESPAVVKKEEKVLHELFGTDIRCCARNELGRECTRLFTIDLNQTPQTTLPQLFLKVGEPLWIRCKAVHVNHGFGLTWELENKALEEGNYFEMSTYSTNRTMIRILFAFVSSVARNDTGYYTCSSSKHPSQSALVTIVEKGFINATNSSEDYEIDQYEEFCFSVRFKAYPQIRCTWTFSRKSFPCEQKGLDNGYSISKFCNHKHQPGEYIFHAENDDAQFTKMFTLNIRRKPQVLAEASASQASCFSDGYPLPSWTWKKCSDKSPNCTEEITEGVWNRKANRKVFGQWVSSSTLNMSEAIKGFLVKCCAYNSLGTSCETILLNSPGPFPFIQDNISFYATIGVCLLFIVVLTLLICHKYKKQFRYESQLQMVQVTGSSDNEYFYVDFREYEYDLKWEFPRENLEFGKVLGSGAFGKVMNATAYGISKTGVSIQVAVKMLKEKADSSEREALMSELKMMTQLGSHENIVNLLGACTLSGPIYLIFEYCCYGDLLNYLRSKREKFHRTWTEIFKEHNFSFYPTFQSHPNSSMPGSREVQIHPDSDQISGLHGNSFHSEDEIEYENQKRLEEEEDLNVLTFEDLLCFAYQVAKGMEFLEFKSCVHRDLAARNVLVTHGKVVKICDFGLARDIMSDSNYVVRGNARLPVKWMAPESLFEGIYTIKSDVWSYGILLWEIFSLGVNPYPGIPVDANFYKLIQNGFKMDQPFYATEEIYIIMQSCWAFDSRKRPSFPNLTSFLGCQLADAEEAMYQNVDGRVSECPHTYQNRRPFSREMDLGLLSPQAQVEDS

As for `CN1CCN(C(=O)c2ccc3cc(CCNc4ncnc5ccc(C#N)cc45)ccc3c2)CC1`, the inhibition in assay [1] is 59%; in assay [2], 69%.

In the case of `CCN1CCN(Cc2ccc(NC(=O)N[C@@H]3CCN(c4ccnc(NC)n4)C3)cc2C(F)(F)F)CC1`, in assay [3], the inhibition came out at 74%. This molecule also gave an IC50 in assay [4] of over 10000 nM.

As to `Cc1c(Br)c(Br)c2c3c1nc(N1CCNCC1)n3CCC2` [SEL-120 FREE BASE], the GI50 in assay [5], in [6], in [7], in [8], in assay [9] and in [11] was under 1000 nM in each case. For the same molecule, the GI50 in assay [12] and in [13] was under 1000 nM throughout. Moreover, the IC50 came out at 4 nM in [10] and 10 nM in assay [14].

On to `N#Cc1ccc2ncnc(NCCc3ccccc3)c2c1`, for which the IC50 in assay [15] was 280 nM.

Turning to `CC1CCc2nc(N)c(C#N)c(-c3cccnc3)c2C1` (stereo unspecified), in assay [16], the EC50 was 1400 nM. The IC50 in assay [17] worked out at 30000 nM; in assay [18] it was 500 nM.

Take `CN(C)[C@H]1C[C@@]23CC[C@@]4(O2)C(=CC[C@]2(C)[C@@H](c5ccc6ccncc6c5)CC[C@H]24)C=C3[C@@H](O)[C@@H]1O`: the GI50 in assay [19] was determined as 5 nM; in assay [20], 4 nM; in [21], 3 nM; in assay [23] it was 6 nM; in assay [25], 1 nM; in assay [26] it was 7 nM. Further, the values for the GI50 in assay [28], in [30] and in [31] were 9 nM, over 1000 nM and 360 nM, respectively. Further, the IC50 in assay [22] amounted to 250 nM; in assay [24] it was 220 nM; in assay [29] it was 10 nM. In assay [27], the inhibition in vivo at 0.16 mg/kg was determined as 70%.

For orientation: inhibition means the share of the control response that was lost under treatment. High values mean a strong effect, low ones a weak effect. What is called IC50 is the concentration needed to halve the response being measured. The GI50 is the concentration that inhibits growth by half. Usually EC50 stands for the concentration giving half of the maximal effect.
